This note sets out measurements from patent US10954214B2 (Janssen Pharmaceutica NV, priority 2016, dated 2021).

Assay [1] deals with full-length MALT1 protein (Strep-MALT1(1-824)-His) (Homo sapiens (Human), UniProt Q9UDY8). As to the kind of experiment: MALT1 Biochemical Protease Assay (Ac-LRSR-AMC substrate). The following applies: 10 nM FL MALT1, 200 μM Ac-LRSR-AMC, 4 h at RT; read-out: MALT1_Biochemical activity (Ac-LRSR-amc) IC50. A digest of the protocol: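 Full-length MALT1 pre-incubated with compounds (30 μM to 0.5 nM, 11 threefold steps) for 50 min at RT. After Ac-LRSR-AMC was added, the reaction ran 4 h at RT and AMC fluorescence was read. IC50 and Hill slope from curve fitting against no-enzyme and no-compound controls.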
Chain of full-length MALT1 protein (Strep-MALT1(1-824)-His) (Q9UDY8 whole entry): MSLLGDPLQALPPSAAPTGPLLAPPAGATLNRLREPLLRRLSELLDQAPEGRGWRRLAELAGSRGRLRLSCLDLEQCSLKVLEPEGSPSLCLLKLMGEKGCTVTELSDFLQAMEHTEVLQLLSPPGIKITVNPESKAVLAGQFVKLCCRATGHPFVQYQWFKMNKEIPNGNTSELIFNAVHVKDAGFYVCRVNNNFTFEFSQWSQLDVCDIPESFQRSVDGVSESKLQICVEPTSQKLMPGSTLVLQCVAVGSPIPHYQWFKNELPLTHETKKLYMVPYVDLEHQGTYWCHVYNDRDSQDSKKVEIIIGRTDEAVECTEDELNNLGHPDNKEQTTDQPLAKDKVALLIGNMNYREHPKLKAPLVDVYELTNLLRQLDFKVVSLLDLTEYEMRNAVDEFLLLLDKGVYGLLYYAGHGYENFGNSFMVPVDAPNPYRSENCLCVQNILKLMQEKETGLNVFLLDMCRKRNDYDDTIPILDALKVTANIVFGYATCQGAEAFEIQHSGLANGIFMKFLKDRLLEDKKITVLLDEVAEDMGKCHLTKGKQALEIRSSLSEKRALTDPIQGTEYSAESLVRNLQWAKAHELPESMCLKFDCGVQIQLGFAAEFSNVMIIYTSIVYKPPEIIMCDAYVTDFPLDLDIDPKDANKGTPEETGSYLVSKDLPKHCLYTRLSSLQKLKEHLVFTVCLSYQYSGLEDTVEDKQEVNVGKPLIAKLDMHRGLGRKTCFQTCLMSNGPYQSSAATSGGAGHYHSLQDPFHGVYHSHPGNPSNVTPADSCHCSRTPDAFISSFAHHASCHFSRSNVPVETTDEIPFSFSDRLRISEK

Assay [2] concerns IL10 secretion by TMD8 ABC-DLBCL cells. The assay can be described thus: Human IL10 Mesoscale assay (TMD-8). The class given is cell-based. The following applies: Homo sapiens, TMD8; TMD-8 cells, 24 h. In a few lines:
(§1)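 TMD8 or OCI-LY3 cells (100,000/well) were exposed to compounds in 9 twofold dilutions from 15 μM to 58.6 nM (0.3% DMSO) for 24 h at 37 °C. Supernatant IL6 and IL10 were quantified by MSD electrochemiluminescence immunoassay. DMSO defined maximum signal and BTK inhibitor RN486 (30 nM–131 pM) defined maximum inhibition.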

Assay [3] relates to IL6 secretion by TMD8 ABC-DLBCL cells. The assay can be described thus: Human IL6 Mesoscale assay (TMD-8). The class given is cell-based. The following applies: Homo sapiens, TMD8; TMD-8 cells, 24 h. In a few lines: as §1

SMILES strings stand for the structures.

For orientation: IC50 means the concentration needed to halve the response being measured. With `N#Cc1cc(NC(=O)c2cnn(-c3ccnc4ccncc34)c2C(F)(F)F)cnc1-n1nccn1` [Cpd 223, N-(5-cyano-6-(2H-1,2,3-triazol-2-yl)pyridin-3-yl)-1-(1,6-naphthyridin-4-yl)-5-(trifluoromethyl)-1H-pyrazole-4-carboxamide], the IC50 in assay [1] amounted to 1700 nM; in assay [2], 1180 nM; in assay [3], 759 nM.

As to `CN1CCN(c2ncc(NC(=O)c3cnn(-c4cccc5ncccc45)c3C(F)(F)F)cc2C#N)CC1` [Cpd 224, N-(5-cyano-6-(4-methylpiperazin-1-yl)pyridin-3-yl)-1-(quinolin-5-yl)-5-(trifluoromethyl)-1H-pyrazole-4-carboxamide], the IC50 in assay [1] is 1660 nM; in assay [2], 832 nM; in assay [3], 575 nM.

Consider `Cn1ncc2cc(NC(=O)c3cnn(-c4cccc5ncccc45)c3C(F)(F)F)cnc21` [Cpd 225, N-(1-methyl-1H-pyrazolo[3,4-b]pyridin-5-yl)-1-(quinolin-5-yl)-5-(trifluoromethyl)-1H-pyrazole-4-carboxamide], for which the values for the IC50 in assay [1], in assay [2] and in assay [3] were 1230 nM, 794 nM and 407 nM, respectively.

On to `Cn1ccc2c(-n3ncc(C(=O)Nc4cnc(-n5nccn5)c(Cl)c4)c3C(F)(F)F)cccc2c1=O` [Cpd 226, N-(5-chloro-6-(2H-1,2,3-triazol-2-yl)pyridin-3-yl)-1-(2-methyl-1-oxo-1,2-dihydroisoquinolin-5-yl)-5-(trifluoromethyl)-1H-pyrazole-4-carboxamide], for which the results for the IC50 in assay [1], in assay [2] and in assay [3] were 1200 nM, 93 nM and 257 nM, respectively.

Consider `N#Cc1cnnn1-c1ncc(NC(=O)c2cnn(-c3cccc4ncccc34)c2C(F)(F)F)cc1Cl` [Cpd 227, N-(5-chloro-6-(5-cyano-1H-1,2,3-triazol-1-yl)pyridin-3-yl)-1-(quinolin-5-yl)-5-(trifluoromethyl)-1H-pyrazole-4-carboxamide], for which the results for the IC50 in assay [1], in assay [2] and in assay [3] were 1150 nM, 550 nM and 6460 nM, respectively.

In the case of `O=C(O)c1cnn(-c2ccc(NC(=O)c3cnn(-c4cccc5ncccc45)c3C(F)(F)F)cc2Cl)n1` [Cpd 228, 2-(2-chloro-4-(1-(quinolin-5-yl)-5-(trifluoromethyl)-1H-pyrazole-4-carboxamido)phenyl)-2H-1,2,3-triazole-4-carboxylic acid], the IC50 in assay [1] worked out at 1120 nM; in assay [2], 813 nM; in assay [3] it was 692 nM.

For `O=C(Nc1cnc2[nH]ncc2c1)c1cnn(-c2cccc3ncccc23)c1C(F)(F)F` [Cpd 229, N-(1H-pyrazolo[3,4-b]pyridin-5-yl)-1-(quinolin-5-yl)-5-(trifluoromethyl)-1H-pyrazole-4-carboxamide], the IC50 in assay [1] amounted to 1120 nM; in assay [2], 331 nM; in assay [3] it was 912 nM.

In the case of `N#Cc1cc(NC(=O)c2cnn(-c3cccn4ccnc34)c2C(F)(F)F)cnc1-n1nccn1` [Cpd 230, N-(5-cyano-6-(2H-1,2,3-triazol-2-yl)pyridin-3-yl)-1-(imidazo[1,2-a]pyridin-8-yl)-5-(trifluoromethyl)-1H-pyrazole-4-carboxamide], the IC50 stood at 1070 nM in assay [1], 759 nM in assay [2] and 1410 nM in assay [3].

Turning to `O=C(Nc1cnc(-n2nccn2)c(Cl)c1)c1cnn(-c2cccc3snnc23)c1C(F)(F)F` [Cpd 231, 1-(benzo[d][1,2,3]thiadiazol-4-yl)-N-(5-chloro-6-(2H-1,2,3-triazol-2-yl)pyridin-3-yl)-5-(trifluoromethyl)-1H-pyrazole-4-carboxamide], the figures for the IC50 in assay [1], in assay [2] and in assay [3] were 891 nM, 851 nM and 724 nM, respectively.

On to `O=C(O)c1cn(-c2ncc(NC(=O)c3cnn(-c4cccc5ncccc45)c3C(F)(F)F)cc2Cl)nn1` [Cpd 234, 1-(3-chloro-5-(1-(quinolin-5-yl)-5-(trifluoromethyl)-1H-pyrazole-4-carboxamido)pyridin-2-yl)-1H-1,2,3-triazole-4-carboxylic acid], for which the values for the IC50 in assay [1], in assay [2] and in assay [3] were 851 nM, 141 nM and 263 nM, respectively.

In the case of `COc1cc(NC(=O)c2cnn(-c3cccc4ncccc34)c2C(F)(F)F)cnc1-n1ccnn1` [Cpd 235, N-(5-methoxy-6-(1H-1,2,3-triazol-1-yl)pyridin-3-yl)-1-(quinolin-5-yl)-5-(trifluoromethyl)-1H-pyrazole-4-carboxamide], the IC50 in assay [1] is 776 nM; in assay [2], 1120 nM; in assay [3], 708 nM.

Consider `N#Cc1cc(NC(=O)c2cnn(-c3cccc4ncccc34)c2C(F)(F)F)ccc1C(=O)O` [Cpd 237, 2-cyano-4-(1-(quinolin-5-yl)-5-(trifluoromethyl)-1H-pyrazole-4-carboxamido)benzoic acid], for which the IC50 came out at 676 nM in assay [1], 182 nM in assay [2] and 275 nM in assay [3].

Regarding `Cn1ncc2c(-n3ncc(C(=O)Nc4cnc(-n5nccn5)c(C#N)c4)c3C(F)(F)F)cccc21` [Cpd 239, N-(5-cyano-6-(2H-1,2,3-triazol-2-yl)pyridin-3-yl)-1-(1-methyl-1H-indazol-4-yl)-5-(trifluoromethyl)-1H-pyrazole-4-carboxamide], the IC50 was determined as 661 nM in assay [1], 562 nM in assay [2] and 324 nM in assay [3].

As for `Cc1cc(NC(=O)c2cnn(-c3cccc4ncccc34)c2C(F)(F)F)cnc1-c1nnnn1C` [Cpd 240], the results for the IC50 in assay [1], in assay [2] and in assay [3] were 631 nM, 135 nM and 398 nM, respectively.

For the molecule `Cc1nc2c(-n3ncc(C(=O)Nc4cnc(-n5nccn5)c(C#N)c4)c3C(F)(F)F)cccc2s1` [Cpd 245, N-(5-cyano-6-(2H-1,2,3-triazol-2-yl)pyridin-3-yl)-1-(2-methylbenzo[d]thiazol-4-yl)-5-(trifluoromethyl)-1H-pyrazole-4-carboxamide], the IC50 in assay [1] was determined as 389 nM; in assay [2], 141 nM; in assay [3], 708 nM.

For the molecule `Cc1nc2cccc(-n3ncc(C(=O)Nc4cnc(-n5nccn5)c(C#N)c4)c3C(F)(F)F)c2s1` [Cpd 247, N-(5-cyano-6-(2H-1,2,3-triazol-2-yl)pyridin-3-yl)-1-(2-methylbenzo[d]thiazol-7-yl)-5-(trifluoromethyl)-1H-pyrazole-4-carboxamide], the results for the IC50 in assay [1], in assay [2] and in assay [3] were 347 nM, 1780 nM and more than 1510 nM, respectively.

As to `NCc1cnnn1-c1ncc(NC(=O)c2cnn(-c3cccc4ncccc34)c2C(F)(F)F)cc1Cl` [Cpd 248, N-(6-(5-(aminomethyl)-1H-1,2,3-triazol-1-yl)-5-chloropyridin-3-yl)-1-(quinolin-5-yl)-5-(trifluoromethyl)-1H-pyrazole-4-carboxamide], the half-maximal inhibitory concentration (IC50) in assay [1] was 331 nM; in assay [2], 468 nM; in assay [3], 1510 nM.

Take `COC(=O)c1cn(-c2ncc(NC(=O)c3cnn(-c4cccc5ncccc45)c3C(F)(F)F)cc2Cl)nn1` [Cpd 249, methyl 1-(3-chloro-5-(1-(quinolin-5-yl)-5-(trifluoromethyl)-1H-pyrazole-4-carboxamido)pyridin-2-yl)-1H-1,2,3-triazole-4-carboxylate]: the IC50 in assay [1] was found to be 331 nM; in assay [2] it was 148 nM; in assay [3], 148 nM.
